Laboratory results reported in patent US20190054097A1, “COMPOSITIONS TARGETING SENESCENT CELLS AND THE USES THEREOF” (BioVentures, LLC, priority 2016, published 2019).
Where two headings read alike, the source gives them in different places.

Columns and labels:
Normal WI38 (NSC) = assay: Viability of normal WI38 cells, PI staining and flow cytometry, 72 hours; assay type: cell-based
Method: (§1) Normal WI38 (NSC) and IR-induced senescent WI38 cells (IR-SC) were incubated with vehicle or increasing concentrations of compounds of Formula (I) or Formula (II) for 72 hours. The cells were digested with 0.25% trypsin and 1 mM EDTA, and harvested in PBS containing 2% FBS. After incubation with propidium iodide (PI, 100 ng/ml) in PBS at room temperature for 1 minute, cells were centrifuged at 1,200 rpm for 6 minutes to remove PI and then resuspended in PBS containing 2% FBS for analysis using a flow cytometer. Viable cells (PI− cells) were analyzed by flow cytometry at a constant flow rate to count the number of cells and calculated as a percentage of control cells treated with vehicle. Table 1 depicts the EC50 values of the compounds of Formula (I) and compounds of Formula (II) against normal WI38 and IR-induced senescent WI38.

RS4; 11 cancer cells = assay: Cancer cell viability by MTS, 72 hours; assay type: cell-based; settings: 11 cells
Method: (§2) RS4; 11 and NCI-H146 cancer cells were incubated with vehicle or increasing concentrations of compounds of Formula (I) and Formula (II). At 72 hours post-treatment cell viability was measured by MTS and EC50 was calculated as a percentage of control cells treated with vehicle. Table 1 depicts the EC50 values of compounds of Formula (I) and Formula (II) against RS4; 11 and NCI-H146.

[1] = tested on: IR-induced senescent WI38 cells (IR-SC); assay: Viability of IR-induced senescent WI38 cells, PI staining and flow cytometry, 72 hours; assay type: cell-based; settings: for EC50: IR-induced senescent WI38 cells, 72 hours, viable PI- cells as percentage of vehicle control; for Ratio NSC/SC: ratio of WI38 EC50 in normal cells to EC50 in IR-induced senescent cells
Method: as §1

NCI-H146 cancer cells = assay: Cancer cell viability by MTS, 72 hours; assay type: cell-based
Method: as §2

senescent cells = assay: Cisplatin-induced peripheral neuropathy (CIPN) in p16-3MR transgenic mice, Von Frey assay and Hot Plate Analgesia Meter; assay type: in vivo; settings: GCV 25 mg/kg/day or ABT263 50 mg/kg/day i.p., 5 days per cycle, 2 cycles, FIG. 8-11
Method: CIPN was induced in young adult male and female p16-3MR mice by intraperitoneal (i.p.) injection of cisplatin (Lake Zurich, Ill., USA) at 2.3 mg/kg/d for 5 days per cycle for 2 cycles with an interval of 5 days between the cycles. The induction of CIPN was measured by analyzing the mechanical sensitivity using the Von Frey assay the day before Cisplatin treatment and on various day after Cisplatin treatment. N=5-6 mice per group.
Mice were treated as described in FIG. 8. The induction of CIPN was measured by analyzing the sensitivity to thermal allodynia using the Hot Plate Analgesia Meter on various day after Cisplatin treatment. N=5-6 mice per group.
To determine the effect of senescent cells on the induction of CIPN, cisplatin-treated mice were administered with vehicle, ganciclovir (GCV) at 25 mg/kg/day for 5 days per cycle for 2 cycles with an interval of 17 days between the cycles, or ABT263 at 50 mg/kg/day for 5 days per cycle for 2 cycles with an interval of 17 days between the cycles by i.p. injection at the indicated times after cisplatin treatment. […] The induction of CIPN was measured by analyzing the mechanical sensitivity using the Von Frey assay (FIG. 8 and FIG. 9) and by analyzing the sensitivity to thermal allodynia using the Hot Plate Analgesia Meter (FIG. 10 and FIG. 11) the day before Cisplatin treatment and on various day after Cisplatin treatment.

[2] = Homo sapiens, WI-38, viable PI- cells as percentage of vehicle control
[3] = viable PI- cells as percentage of vehicle control

For `CC1(C)CCC(c2ccc(Cl)cc2)=C(CN2CCN(c3ccc(C(=O)NS(=O)(=O)c4ccc(N[C@H](CCN5CCN(CCOCCOCCOCCNc6cccc7c6C(=O)N(C6CCC(=O)NC6=O)C7=O)CC5)CSc5ccccc5)c(S(=O)(=O)C(F)(F)F)c4)cc3)CC2)C1` (stereo partly drawn) [XZ-15418, 4-(4-((4′-chloro-4,4-dimethyl-3,4,5,6-tetrahydro-[1,1′-biphenyl]-2-yl)methyl)piperazin-1-yl)-N-((4-(((2R)-4-(4-(2-(2-(2-(2-((2-(2,6-dioxopiperidin-3-yl)-1,3-dioxoisoindolin-4-yl)amino)ethoxy)ethoxy)ethoxy)ethyl)piperazin-1-yl)-1-(phenylthio)butan-2-yl)amino)-3-((trifluoromethyl)sulfonyl)phenyl)sulfonyl)benzamide], the EC50 (Normal WI38 (NSC); [2]) was over 10000 nM, the EC50 (RS4; 11 cancer cells; Homo sapiens) was 12.3 nM and the EC50 ([1]; Homo sapiens, WI-38) was 172 nM.
`CC(C)(C)OC(=O)N1CCN(CC#Cc2ccc(OCCCc3sc(N4CCc5cccc(C(=O)Nc6nc7ccccc7s6)c5C4)nc3C(=O)O)c(F)c2)CC1` [XZ-13861] was tested, and the EC50 (Normal WI38 (NSC); [3]) was 32800 nM, the “Selective inhibition of IR-SC WI38 cells versus normal WI38 cells” value ([1]; FIG. 2A, FIG. 2B, dose dependent) was “selectively inhibits IR-SC WI38 cells but not normal WI38 cells in a dose-dependent manner” and the EC50 [1] was 3120 nM.
In the case of `Cc1ncsc1-c1ccc(CNC(=O)[C@@H]2C[C@@H](O)CN2C(=O)[C@@H](NC(=O)COCCOCCOCc2cn(CCCC(=O)N3CCN(CC#Cc4ccc(OCCCc5sc(N6CCc7cccc(C(=O)Nc8nc9ccccc9s8)c7C6)nc5C(=O)O)c(F)c4)CC3)nn2)C(C)(C)C)cc1` [XZ-14455, 2-(8-(benzo[d]thiazol-2-ylcarbamoyl)-3,4-dihydroisoquinolin-2(1H)-yl)-5-(3-(2-fluoro-4-(3-(4-(4-(4-((S)-12-((2S,4R)-4-hydroxy-2-((4-(4-methylthiazol-5-14)benzyl)carbamoyl)pyrrolidine-1-carbonyl)-13,13-dimethyl-10-oxo-2,5,8-trioxa-11-azatetradecyl)-1H-1,2,3-triazol-1-yl)butanoyl)piperazin-1-yl)prop-1-yn-1-yl)phenoxy)propyl)thiazole-4-carboxylic acid], the EC50 (Normal WI38 (NSC); [3]) is reported as 5000 nM, the EC50 (NCI-H146 cancer cells) is reported as over 2000 nM and the EC50 (RS4; 11 cancer cells) is reported as over 2000 nM. The EC50 [1] was 1470 nM and the “Ratio NSC/SC” value [1] was 3.40.
Work on `CC1(C)CCC(c2ccc(Cl)cc2)=C(CN2CCN(c3ccc(C(=O)NS(=O)(=O)c4ccc(N[C@H](CCN5CCN(C(=O)CCCn6cc(COCCOCCNc7cccc8c7C(=O)N(C7CCC(=O)NC7=O)C8=O)nn6)CC5)CSc5ccccc5)c(S(=O)(=O)C(F)(F)F)c4)cc3)CC2)C1` (stereo partly drawn) [PZ-15227, 4-(4-((4′-chloro-4,4-dimethyl-3,4,5,6-tetrahydro-[1,1′-biphenyl]-2-yl)methyl)piperazin-1-yl)-N-((4-(((2R)-4-(4-(4-(4-((2-(2-((2-(2,6-dioxopiperidin-3-yl)-1,3-dioxoisoindolin-4-yl)amino)ethoxy)ethoxy)methyl)-1H-1,2,3-triazol-1-yl)butanoyl)piperazin-1-yl)-1-(phenylthio)butan-2-yl)amino)-3-((trifluoromethyl)sulfonyl)phenyl)sulfonyl)benzamide] yielded an EC50 (Normal WI38 (NSC); [2]) of over 10000 nM, an EC50 (NCI-H146 cancer cells; Homo sapiens) of 68.9 nM and an EC50 (RS4; 11 cancer cells; Homo sapiens) of 114 nM. The EC50 ([1]; Homo sapiens, WI-38) was 108 nM and the “Ratio NSC/SC” value [1] was over 92.
Work on `CC1(C)CCC(CN2CCN(c3ccc(C(=O)NS(=O)(=O)c4ccc(NCC5CCN(C(=O)CCCn6cc(COCCOCCOCCNc7cccc8c7C(=O)N(C7CCC(=O)NC7=O)C8=O)nn6)CC5)c([N+](=O)[O-])c4)c(Oc4cnc5[nH]ccc5c4)c3)CC2)=C(c2ccc(Cl)cc2)C1` (stereo not shown) [XZ-14523, 2-((1H-pyrrolo[2,3-b]pyridin-5-yl)oxy)-4-(4-((4′-chloro-5,5-dimethyl-3,4,5,6-tetrahydro-[1,1′-biphenyl]-2-yl)methyl)piperazin-1-yl)-N-((4-(((1-(4-(4-((2-(2-(2-((2-(2,6-dioxopiperidin-3-yl)-1,3-dioxoisoindolin-4-14)amino)ethoxy)ethoxy)ethoxy)methyl)-1H-1,2,3-triazol-1-yl)butanoyl)piperidin-4-yl)methyl)amino)-3-nitrophenyl)sulfonyl)benzamide] yielded an EC50 (Normal WI38 (NSC); [3]) of over 10000 nM, an EC50 (NCI-H146 cancer cells) of 1260 nM and an EC50 (RS4; 11 cancer cells) of 161 nM. For the same compound, the EC50 [1] was over 10000 nM.
In the case of `Nc1nc(O)c2ncn(COC(CO)CO)c2n1` [GCV, ganciclovir], the “Reversal of cisplatin-induced peripheral neuropathy” value (senescent cells) is reported as “reversed cisplatin-induced peripheral neuropathy (CIPN)”.
In the case of `CC1(C)CCC(c2ccc(Cl)cc2)=C(CN2CCN(c3ccc(C(=O)NS(=O)(=O)c4ccc(N[C@H](CCN5CCN(C(=O)COCCOCCOCCNc6cccc7c6C(=O)N(C6CCC(=O)NC6=O)C7=O)CC5)CSc5ccccc5)c(S(=O)(=O)C(F)(F)F)c4)cc3)CC2)C1` (stereo partly drawn) [XZ-14510, 4-(4-((4′-chloro-4,4-dimethyl-3,4,5,6-tetrahydro-[1,1′-biphenyl]-2-yl)methyl)piperazin-1-yl)-N-((4-(((2R)-4-(4-(2-(2-(2-(2-((2-(2,6-dioxopiperidin-3-yl)-1,3-dioxoisoindolin-4-yl)amino)ethoxy)ethoxy)ethoxy)acetyl)piperazin-1-yl)-1-(phenylthio)butan-2-yl)amino)-3-((trifluoromethyl)sulfonyl)phenyl)sulfonyl)benzamide], the “Ratio NSC/SC” value [1] is reported as over 56.
